{"source": "patent US20210038554A1", "about": "“DIETARY BUTYRATE” (SOCIETE DES PRODUITS NESTLE S.A., priority 2018, published 2021)", "key": {"[1]": {"target": "T1, porcine pancreatic lipase (from pancreatin) (Sus scrofa, UniProt P00591)", "T1 construct": "pancreatin (Porcine, USP×8, P7585); purchased Sigma-Aldrich P7585; host or cells: porcine pancreas extract (pancreatin)", "T1 sequence (P00591 1-450)": "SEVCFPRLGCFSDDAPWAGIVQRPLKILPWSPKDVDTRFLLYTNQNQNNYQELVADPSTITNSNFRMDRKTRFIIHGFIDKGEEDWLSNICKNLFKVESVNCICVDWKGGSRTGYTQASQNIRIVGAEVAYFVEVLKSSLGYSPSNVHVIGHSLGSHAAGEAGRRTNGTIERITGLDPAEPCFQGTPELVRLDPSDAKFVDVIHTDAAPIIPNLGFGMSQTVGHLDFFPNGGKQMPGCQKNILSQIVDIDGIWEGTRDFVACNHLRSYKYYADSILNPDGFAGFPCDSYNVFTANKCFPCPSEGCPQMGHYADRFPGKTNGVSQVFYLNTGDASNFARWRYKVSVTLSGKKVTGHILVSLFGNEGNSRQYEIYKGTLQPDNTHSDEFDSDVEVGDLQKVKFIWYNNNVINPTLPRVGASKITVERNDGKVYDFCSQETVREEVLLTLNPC", "T1 sequence (P02703 23-112 partner)": "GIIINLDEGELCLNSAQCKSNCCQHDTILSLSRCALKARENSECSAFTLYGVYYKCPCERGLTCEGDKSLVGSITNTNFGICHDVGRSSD", "assay": "In vitro digestion, simulated intestinal fluid (SIF) model, pH-stat", "type": "in vitro ADME", "conditions": "SIF alone; 200 mg fat emulsion, pH 6.8, 37° C.", "procedure": "(§1) The lipid emulsion (2 mL) containing 200 mg of fat was subjected to gastrointestinal in vitro lipolysis. […] For gastric digestion, the sample was incubated for 90 minutes with 8.5 mL of simulated gastric fluid (SGF), which consisted of 150 mM NaCl, 450 U/mL pepsin, 18 U/mL rabbit gastric lipase at 37° C. and a pH of 5.5.\nThe intestinal digestion step was performed in the pH stat where the pH was kept constant at 6.8 by addition of NaOH (0.05 M). […] The intestinal digestion step starts when the temperature reaches 37±0.5° C. The pH was adjusted to pH 6.8 and after incubation of two minutes at this pH and temperature, a pancreatin solution (5 mM tris, 150 mM NaCl at pH 6.8) was added. […] During the intestinal phase of digestion, the kinetics of digestion were followed using a pH-stat (TIM856, Radiometer) technique and expressed as titratable acid (rather than fatty acid) that was calculated by the equation: […]\n(§2) Since the digestion of dietary lipids involves lipases of both gastric and intestinal origin, lipid digestibility was assessed using two digestion models i) simulated intestinal fluid (SIF) with porcine pancreatic lipase (PPL) and ii) sequential digestion in simulated gastric fluid (SGF) with rabbit gastric lipase (RGL) followed by simulated intestinal fluid (SIF) with porcine pancreatic lipase (PPL)."}, "[2]": {"system": "rabbit gastric lipase (RGL) followed by porcine pancreatic lipase (PPL)", "assay": "In vitro sequential digestion SGF followed by SIF, pH-stat", "type": "in vitro ADME", "procedure": "as §1\nThe intestinal digestion step was performed in the pH stat where the pH was kept constant at 6.8 by addition of NaOH (0.05 M). […] The intestinal digestion step starts when the temperature reaches 37±0.5° C. The pH was adjusted to pH 6.8 and after incubation of two minutes at this pH and temperature, a pancreatin solution (5 mM tris, 150 mM NaCl at pH 6.8) was added. The final composition of the intestinal fluid was 10 mM CaCl2), 12 mM mixed bile salts, 0.75 mM phospholipid, 150 mM NaCl and 4 mM tris(hydroxymethyl)aminomethane buffer. The intestinal digestion step was carried out for 3 hours in a titration manager from Radiometer. During the intestinal phase of digestion, the kinetics of digestion were followed using a pH-stat (TIM856, Radiometer) technique and expressed as titratable acid (rather than fatty acid) that was calculated by the equation:\nTA: Total titratable acid released, mmol; VNaOH: volume of NaOH used to titrate the released acid in 3 h, mL.\nas §2"}}}
{"smiles": "CCCC(=O)OCC(COC(=O)CCC)OC(=O)CCC", "note": "[tributyrin]", "values": [{"measurement": "initial rate of lipolysis", "setting": "[1]", "value": "223 ± 59", "unit": "µmol/min"}, {"measurement": "initial lipolysis rate in SIF after SGF", "setting": "[2]; SGF-SIF sequential digestion, 200 mg fat emulsion", "value": "44.1 ± 8.8", "unit": "µmol/min"}, {"measurement": "extent of hydrolysis in the stomach (gastric lipolysis)", "setting": "[2]; in words", "value": "extensive hydrolysis in the stomach"}, {"measurement": "lipolysis by gastric lipase", "setting": "[2]; indicated by decreased total fatty acid release in SIF after RGL in SGF", "value": "~60", "unit": "%"}]}
